Experimental data from paper PMC12596731, “Cys–Lys stapling for unprotected peptides via tunable linkers” (National Science Review, 2025).

Assay: Cys-Lys stapling of unprotected peptides with unsymmetrical linker (1.5 equiv): Cys thiol displaces phthalimide from N-thiophthalimide (disulfide, ~1 min), then ring closure by Lys amine attack on pentafluorophenyl ester with DIPEA (4 equiv)
Settings: the molecule shown is the open-chain precursor, CH3CN:H2O 3:1, 25.0 °C, 0.167 h

SMILES: CC(=O)N[C@@H](CCC(N)=O)C(=O)N[C@@H](CO)C(=O)N[C@@H](CCC(N)=O)C(=O)N[C@@H](CCC(N)=O)C(=O)N[C@H](C(=O)N[C@@H](Cc1ccccc1)C(=O)N[C@@H](CSS/C(=C/Cl)CCCCC(=O)Oc1c(F)c(F)c(F)c(F)c1F)C(=O)N[C@@H](CC(N)=O)C(=O)N[C@@H](CC(C)C)C(=O)N[C@@H](Cc1c[nH]c2ccccc12)C(=O)N[C@@H](CCCNC(=N)N)C(=O)N[C@@H](CC(C)C)C(=O)N[C@@H](CC(C)C)C(=O)N[C@@H](CCCCN)C(=O)N[C@@H](CCC(N)=O)C(=O)N[C@@H](CC(N)=O)C(N)=O)[C@@H](C)O
- ring closure, isolated yield (36-membered ring): 84%

SMILES: CC(=O)N[C@@H](CCC(N)=O)C(=O)N[C@@H](CO)C(=O)N[C@@H](CCC(N)=O)C(=O)N[C@@H](CCC(N)=O)C(=O)N[C@H](C(=O)N[C@@H](Cc1ccccc1)C(=O)N[C@@H](CSS/C(=C/Cl)CCOc1ccccc1C(=O)Oc1c(F)c(F)c(F)c(F)c1F)C(=O)N[C@@H](CC(N)=O)C(=O)N[C@@H](CC(C)C)C(=O)N[C@@H](Cc1c[nH]c2ccccc12)C(=O)N[C@@H](CCCNC(=N)N)C(=O)N[C@@H](CC(C)C)C(=O)N[C@@H](CC(C)C)C(=O)N[C@@H](CCCCN)C(=O)N[C@@H](CCC(N)=O)C(=O)N[C@@H](CC(N)=O)C(N)=O)[C@@H](C)O
- ring closure, isolated yield (37-membered ring): 65%

SMILES: CC(=O)N[C@H](C(=O)N[C@@H](CO)C(=O)N[C@@H](Cc1ccccc1)C(=O)N[C@@H](CCCCN)C(=O)N[C@@H](CCC(N)=O)C(=O)N[C@@H](Cc1ccc(O)cc1)C(=O)N[C@@H](Cc1c[nH]c2ccccc12)C(=O)N[C@@H](CSS/C(=C/Cl)CCC(=O)Oc1c(F)c(F)c(F)c(F)c1F)C(=O)N[C@@H](CC(C)C)C(=O)N[C@@H](CC(C)C)C(=O)N[C@@H](CO)C(=O)N[C@@H](CCCNC(=N)N)C(N)=O)[C@@H](C)O
- ring closure, isolated yield (25-membered ring): 69%

SMILES: CC(=O)N[C@@H](CCC(N)=O)C(=O)N[C@@H](CO)C(=O)N[C@@H](CCC(N)=O)C(=O)N[C@@H](CCC(N)=O)C(=O)N[C@H](C(=O)N[C@@H](Cc1ccccc1)C(=O)N[C@@H](CSS/C(=C/Cl)CCC(=O)Oc1c(F)c(F)c(F)c(F)c1F)C(=O)N[C@@H](CC(N)=O)C(=O)N[C@@H](CC(C)C)C(=O)N[C@@H](Cc1c[nH]c2ccccc12)C(=O)N[C@@H](CCCNC(=N)N)C(=O)N[C@@H](CC(C)C)C(=O)N[C@@H](CC(C)C)C(=O)N[C@@H](CCCCN)C(=O)N[C@@H](CCC(N)=O)C(=O)N[C@@H](CC(N)=O)C(N)=O)[C@@H](C)O
- ring closure, isolated yield (34-membered ring): 79%

SMILES: CC[C@H](C)[C@H](NC(=O)[C@@H]1CCCN1C(=O)[C@H](CSS/C(=C/Cl)CCOc1cccc(C(=O)Oc2c(F)c(F)c(F)c(F)c2F)c1)NC(C)=O)C(=O)N[C@@H](CCSC)C(=O)N[C@@H](CCC(=O)O)C(=O)N[C@@H](CC(=O)O)C(=O)N[C@@H](CCCNC(=N)N)C(=O)N[C@@H](CCCCN)C(=O)N1CCC[C@H]1C(N)=O [Ac-Cys(S-linker 3k-OPfp)-Pro-Ile-Met-Glu-Asp-Arg-Lys-Pro-NH2]
- ring closure, isolated yield (38-membered ring): 72%

SMILES: CC(=O)N[C@@H](CCCCN)C(=O)N[C@@H](C)C(=O)N[C@@H](C)C(=O)N[C@@H](C)C(=O)N[C@@H](CSS/C(=C/Cl)CCC(=O)Oc1c(F)c(F)c(F)c(F)c1F)C(=O)N[C@@H](Cc1ccccc1)C(N)=O [Ac-Lys-Ala-Ala-Ala-Cys(S-linker 3a-OPfp)-Phe-NH2]
- ring closure, isolated yield (25-membered ring): 72%

SMILES: CC(=O)N[C@@H](CCCCN)C(=O)N[C@@H](C)C(=O)N[C@@H](C)C(=O)N[C@@H](C)C(=O)N[C@@H](CSS/C(=C/Cl)c1cccc(C(=O)Oc2c(F)c(F)c(F)c(F)c2F)c1)C(=O)N[C@@H](Cc1ccccc1)C(N)=O [Ac-Lys-Ala-Ala-Ala-Cys(S-linker 3j-OPfp)-Phe-NH2]
- ring closure, isolated yield (26-membered ring): 72%

SMILES: CC(=O)N[C@H](C(=O)N[C@@H](CO)C(=O)N[C@@H](Cc1ccccc1)C(=O)N[C@@H](CCCCN)C(=O)N[C@@H](CCC(N)=O)C(=O)N[C@@H](Cc1ccc(O)cc1)C(=O)N[C@@H](Cc1c[nH]c2ccccc12)C(=O)N[C@@H](CSS/C(=C/Cl)c1cccc(C(=O)Oc2c(F)c(F)c(F)c(F)c2F)c1)C(=O)N[C@@H](CC(C)C)C(=O)N[C@@H](CC(C)C)C(=O)N[C@@H](CO)C(=O)N[C@@H](CCCNC(=N)N)C(N)=O)[C@@H](C)O
- ring closure, isolated yield (26-membered ring): 84%

SMILES: CC[C@H](C)[C@H](NC(=O)[C@@H]1CCCN1C(=O)[C@H](CSS/C(=C/Cl)CCCC(=O)Oc1c(F)c(F)c(F)c(F)c1F)NC(C)=O)C(=O)N[C@@H](CCSC)C(=O)N[C@@H](CCC(=O)O)C(=O)N[C@@H](CC(=O)O)C(=O)N[C@@H](CCCNC(=N)N)C(=O)N[C@@H](CCCCN)C(=O)N1CCC[C@H]1C(N)=O [Ac-Cys(S-linker 3b-OPfp)-Pro-Ile-Met-Glu-Asp-Arg-Lys-Pro-NH2]
- ring closure, isolated yield (35-membered ring): 81%

SMILES: CC[C@H](C)[C@H](NC(=O)[C@@H]1CCCN1C(=O)[C@H](CSS/C(=C/Cl)COCC(=O)Oc1c(F)c(F)c(F)c(F)c1F)NC(C)=O)C(=O)N[C@@H](CCSC)C(=O)N[C@@H](CCC(=O)O)C(=O)N[C@@H](CC(=O)O)C(=O)N[C@@H](CCCNC(=N)N)C(=O)N[C@@H](CCCCN)C(=O)N1CCC[C@H]1C(N)=O [Ac-Cys(S-linker 3f-OPfp)-Pro-Ile-Met-Glu-Asp-Arg-Lys-Pro-NH2]
- ring closure, isolated yield (35-membered ring): 75%

SMILES: CC(=O)N[C@H](C(=O)N[C@@H](CO)C(=O)N[C@@H](Cc1ccccc1)C(=O)N[C@@H](CCCCN)C(=O)N[C@@H](CCC(N)=O)C(=O)N[C@@H](Cc1ccc(O)cc1)C(=O)N[C@@H](Cc1c[nH]c2ccccc12)C(=O)N[C@@H](CSS/C(=C/Cl)CCCCCCCCC(=O)Oc1c(F)c(F)c(F)c(F)c1F)C(=O)N[C@@H](CC(C)C)C(=O)N[C@@H](CC(C)C)C(=O)N[C@@H](CO)C(=O)N[C@@H](CCCNC(=N)N)C(N)=O)[C@@H](C)O
- ring closure, isolated yield (31-membered ring): 68%

SMILES: CC(=O)N[C@@H](CCC(N)=O)C(=O)N[C@@H](CO)C(=O)N[C@@H](CCC(N)=O)C(=O)N[C@@H](CCC(N)=O)C(=O)N[C@H](C(=O)N[C@@H](Cc1ccccc1)C(=O)N[C@@H](CSS/C(=C/Cl)CCCCCCCCC(=O)Oc1c(F)c(F)c(F)c(F)c1F)C(=O)N[C@@H](CC(N)=O)C(=O)N[C@@H](CC(C)C)C(=O)N[C@@H](Cc1c[nH]c2ccccc12)C(=O)N[C@@H](CCCNC(=N)N)C(=O)N[C@@H](CC(C)C)C(=O)N[C@@H](CC(C)C)C(=O)N[C@@H](CCCCN)C(=O)N[C@@H](CCC(N)=O)C(=O)N[C@@H](CC(N)=O)C(N)=O)[C@@H](C)O
- ring closure, isolated yield (40-membered ring): 75%

SMILES: CC(=O)N[C@H](C(=O)N[C@@H](CO)C(=O)N[C@@H](Cc1ccccc1)C(=O)N[C@@H](CCCCN)C(=O)N[C@@H](CCC(N)=O)C(=O)N[C@@H](Cc1ccc(O)cc1)C(=O)N[C@@H](Cc1c[nH]c2ccccc12)C(=O)N[C@@H](CSS/C(=C/Cl)CCOc1cccc(C(=O)Oc2c(F)c(F)c(F)c(F)c2F)c1)C(=O)N[C@@H](CC(C)C)C(=O)N[C@@H](CC(C)C)C(=O)N[C@@H](CO)C(=O)N[C@@H](CCCNC(=N)N)C(N)=O)[C@@H](C)O
- ring closure, isolated yield (29-membered ring): 85%

SMILES: CC(=O)N[C@H](C(=O)N[C@@H](CO)C(=O)N[C@@H](Cc1ccccc1)C(=O)N[C@@H](CCCCN)C(=O)N[C@@H](CCC(N)=O)C(=O)N[C@@H](Cc1ccc(O)cc1)C(=O)N[C@@H](Cc1c[nH]c2ccccc12)C(=O)N[C@@H](CSS/C(=C/Cl)COCC(=O)Oc1c(F)c(F)c(F)c(F)c1F)C(=O)N[C@@H](CC(C)C)C(=O)N[C@@H](CC(C)C)C(=O)N[C@@H](CO)C(=O)N[C@@H](CCCNC(=N)N)C(N)=O)[C@@H](C)O
- ring closure, isolated yield (26-membered ring): 78%

SMILES: CC(=O)N[C@@H](CCC(N)=O)C(=O)N[C@@H](CO)C(=O)N[C@@H](CCC(N)=O)C(=O)N[C@@H](CCC(N)=O)C(=O)N[C@H](C(=O)N[C@@H](Cc1ccccc1)C(=O)N[C@@H](CSS/C(=C/Cl)CCOc1ccc(C(=O)Oc2c(F)c(F)c(F)c(F)c2F)cc1)C(=O)N[C@@H](CC(N)=O)C(=O)N[C@@H](CC(C)C)C(=O)N[C@@H](Cc1c[nH]c2ccccc12)C(=O)N[C@@H](CCCNC(=N)N)C(=O)N[C@@H](CC(C)C)C(=O)N[C@@H](CC(C)C)C(=O)N[C@@H](CCCCN)C(=O)N[C@@H](CCC(N)=O)C(=O)N[C@@H](CC(N)=O)C(N)=O)[C@@H](C)O
- ring closure, isolated yield (39-membered ring): 68%

SMILES: CC(=O)N[C@@H](CCC(N)=O)C(=O)N[C@@H](CO)C(=O)N[C@@H](CCC(N)=O)C(=O)N[C@@H](CCC(N)=O)C(=O)N[C@H](C(=O)N[C@@H](Cc1ccccc1)C(=O)N[C@@H](CSS/C(=C/Cl)COCC(=O)Oc1c(F)c(F)c(F)c(F)c1F)C(=O)N[C@@H](CC(N)=O)C(=O)N[C@@H](CC(C)C)C(=O)N[C@@H](Cc1c[nH]c2ccccc12)C(=O)N[C@@H](CCCNC(=N)N)C(=O)N[C@@H](CC(C)C)C(=O)N[C@@H](CC(C)C)C(=O)N[C@@H](CCCCN)C(=O)N[C@@H](CCC(N)=O)C(=O)N[C@@H](CC(N)=O)C(N)=O)[C@@H](C)O
- ring closure, isolated yield (35-membered ring): 89%

SMILES: CC[C@H](C)[C@H](NC(=O)[C@@H]1CCCN1C(=O)[C@H](CSS/C(=C/Cl)CCCCCC(=O)Oc1c(F)c(F)c(F)c(F)c1F)NC(C)=O)C(=O)N[C@@H](CCSC)C(=O)N[C@@H](CCC(=O)O)C(=O)N[C@@H](CC(=O)O)C(=O)N[C@@H](CCCNC(=N)N)C(=O)N[C@@H](CCCCN)C(=O)N1CCC[C@H]1C(N)=O [Ac-Cys(S-linker 3d-OPfp)-Pro-Ile-Met-Glu-Asp-Arg-Lys-Pro-NH2]
- ring closure, isolated yield (37-membered ring): 78%

SMILES: CC[C@H](C)[C@H](NC(=O)[C@@H]1CCCN1C(=O)[C@H](CSS/C(=C/Cl)CCOc1ccccc1C(=O)Oc1c(F)c(F)c(F)c(F)c1F)NC(C)=O)C(=O)N[C@@H](CCSC)C(=O)N[C@@H](CCC(=O)O)C(=O)N[C@@H](CC(=O)O)C(=O)N[C@@H](CCCNC(=N)N)C(=O)N[C@@H](CCCCN)C(=O)N1CCC[C@H]1C(N)=O [Ac-Cys(S-linker 3i-OPfp)-Pro-Ile-Met-Glu-Asp-Arg-Lys-Pro-NH2]
- ring closure, isolated yield (37-membered ring): 65%
